{"source": "patent US5318994A", "about": "“N-[2-(7-lower-alkoxynaphth-1-yl)ethyl]benzamides” (Adir et Compagnie, priority 1990, dated 1994)", "target": "melatonin receptors", "assay": "Test of binding to melatonin receptors", "procedure": "Binding of compounds of the invention to melatonin receptors was carried out according to conventional techniques.", "data": [{"smiles": "COc1ccc2[nH]cc(CCNC(C)=O)c2c1", "note": "[melatonin]", "values": [{"measurement": "Kd", "value": 0.063, "unit": "nM"}]}]}
